From the supplement of paper PMC4314810
± gives the standard deviation of the averaged measurements.

tested on: MCF7; test: HRG-induced Akt activation (dPAkt = log2 pAkt/Akt HRG-stimulated minus log2 pAkt/Akt basal) (log2 ratio difference); higher = stronger HRG-induced Akt(T308) phosphorylation; conditions: miRNA mimic concentration 10 nM; time after transfection 72 h; heregulin 10 ng/ml; stimulation time 1 h
Outline: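 MCF7 cells were plated […] in 96-well plates and transfected in two biological replicates with a library of 879 miRNA mimics (10 nM final) using Lipofectamine RNAiMax; 72 h later they were stimulated for 1 h with 10 ng/ml heregulin-beta1 or left unstimulated. After fixation in 4% PFA, phospho-Akt(T308) and total Akt were measured by In-Cell Western on an Odyssey, with signals corrected for column-wise fixation decay. Heregulin-induced Akt activation is the stimulated minus unstimulated value of the log ratio of phospho-Akt to total Akt, averaged over replicates. That log ratio is log2(pAkt/Akt).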

Sequence	HRG-induced Akt activation (log2)
GUCAUACACGGCUCUCCUCUCU	0.922 ± 0.81
GUCCAGUUUUCCCAGGAAUCCCU	1.7 ± 0.2
GUCCCUCUCCAAAUGUGUCUUG	0.988 ± 0.27
GUCCCUGUUCAGGCGCCA	1.73 ± 0.15
GUCCGCUCGGCGGUGGCCCA	1.34 ± 0.29
GUGAAAUGUUUAGGACCACUAG	1.97 ± 0.049
GUGAACGGGCGCCAUCCCGAGG	1.9231 ± 0.00011
GUGAAUUACCGAAGGGCCAUAA	1.03 ± 0.12
GUGACAUCACAUAUACGGCAGC	1.08 ± 0.31
GUGAGGACUCGGGAGGUGG	1.19 ± 0.87
GUGAGGGCAUGCAGGCCUGGAUGGGG	1.43 ± 0.21
GUGAGUCUCUAAGAAAAGAGGA	1.56 ± 0.38
GUGCAUUGCUGUUGCAUUGC	1.178 ± 0.00052
GUGCAUUGUAGUUGCAUUGCA	1.43 ± 0.074
GUGCCAGCUGCAGUGGGGGAG	0.883 ± 0.036
GUGGCUGCACUCACUUCCUUC	1.16 ± 0.076
GUGGGCGGGGGCAGGUGUGUG	1.13 ± 0.44
GUGGGGGAGAGGCUGUC	1.33 ± 0.25
GUGGGUACGGCCCAGUGGGGGG	1.24 ± 0.18
GUGUCUGCUUCCUGUGGGA	2.6 ± 0.069
GUGUCUGGGCGGACAGCUGC	1.87 ± 0.23
GUGUCUUUUGCUCUGCAGUCA	1.75 ± 0.15
GUGUGCGGAAAUGCUUCUGCUA	1.18 ± 0.2
GUGUGUGGAAAUGCUUCUGC	2.16 ± 0.41

Sequence	HRG-induced Akt activation (log2)
GUGUUAAUUAAACCUCUAUUUAC	1.76 ± 0.034
GUGUUGAAACAAUCUCUACUG	1.53 ± 0.25
GUUCAAAUCCAGAUCUAUAAC	1.08 ± 0.18
GUUCUCCCAACGUAAGCCCAGC	1.62 ± 0.15
GUUGGAGGAUGAAAGUACGGAGUGAU	0.878 ± 1.2
GUUGUGUCAGUUUAUCAAAC	1.54 ± 0.089
GUUUGCACGGGUGGGCCUUGUCU	1.88 ± 0.072
UAAAGAGCCCUGUGGAGACA	1.58 ± 0.083
UAAAGUAAAUAUGCACCAAAA	1.45 ± 0.18
UAAAGUGCUGACAGUGCAGAU	1.52 ± 0.054
UAAAGUGCUUAUAGUGCAGGUAG	1.57 ± 0.035
UAAAUCCCAUGGUGCCUUCUCCU	2.03 ± 0.12
UAAAUUUCACCUUUCUGAGAAGG	1.46 ± 0.22
UAACACUGUCUGGUAAAGAUGG	0.763 ± 0.24
UAACACUGUCUGGUAACGAUGU	1.04 ± 0.078
UAACAGUCUACAGCCAUGGUCG	1.37 ± 0.26
UAACAGUCUCCAGUCACGGCC	1.5 ± 0.11
UAACUGGUUGAACAACUGAACC	1.93 ± 0.54
UAAGGCACCCUUCUGAGUAGA	1.51 ± 0.1
UAAGGCACGCGGUGAAUGCC	1.15 ± 0.41
UAAGGUGCAUCUAGUGCAGAUAG	2.27 ± 0.37
UAAGGUGCAUCUAGUGCAGUUAG	2.1 ± 0.024
UAAGUGCUUCCAUGCUU	0.459 ± 0.22
UAAGUGCUUCCAUGUUUCAGUGG	0.9677 ± 0.0067

Sequence	HRG-induced Akt activation (log2)
UAAGUGCUUCCAUGUUUGAGUGU	1.17 ± 0.15
UAAGUGCUUCCAUGUUUUAGUAG	1.08 ± 0.1
UAAGUGCUUCCAUGUUUUGGUGA	0.743 ± 0.38
UAAUACUGCCGGGUAAUGAUGGA	1.08 ± 0.34
UAAUACUGCCUGGUAAUGAUGA	1.65 ± 0.49
UAAUACUGUCUGGUAAAACCGU	1.15 ± 0.17
UAAUCCUUGCUACCUGGGUGAGA	1.79 ± 0.047
UAAUCUCAGCUGGCAACUGUGA	1.38 ± 0.37
UAAUGCCCCUAAAAAUCCUUAU	0.932 ± 0.16
UAAUUGCUUCCAUGUUU	1.75 ± 0.088
UAAUUUUAUGUAUAAGCUAGU	1.79 ± 0.15
UACAGUACUGUGAUAACUGAA	1.57 ± 0.14
UACAGUAUAGAUGAUGUACU	1.39 ± 0.57
UACCACAGGGUAGAACCACGG	1.43 ± 0.074
UACCCAGAGCAUGCAGUGUGAA	1.78 ± 0.12
UACCCAUUGCAUAUCGGAGUUG	1.78 ± 0.071
UACCCUGUAGAACCGAAUUUGUG	1.99 ± 0.17
UACCCUGUAGAUCCGAAUUUGUG	1.47 ± 0.25
UACGUAGAUAUAUAUGUAUUUU	1.5 ± 0.16
UACGUCAUCGUUGUCAUCGUCA	1.21 ± 0.51
UACUCAAAAAGCUGUCAGUCA	1.02 ± 0.51
UACUCAGGAGAGUGGCAAUCAC	1.1 ± 0.15
UACUCCAGAGGGCGUCACUCAUG	1.02 ± 0.78
UACUGCAGACAGUGGCAAUCA	1.21 ± 0.45

Sequence	HRG-induced Akt activation (log2)
UACUGCAGACGUGGCAAUCAUG	1 ± 0.63
UACUGCAUCAGGAACUGAUUGGA	0.878 ± 0.64
UACUUGGAAAGGCAUCAGUUG	1.28 ± 0.25
UAGAGUUACACCCUGGGAGUUA	1.66 ± 0.19
UAGAUAAAAUAUUGGUACCUG	1.34 ± 0.55
UAGCAAAAACUGCAGUUACUUU	1.86 ± 0.15
UAGCACCAUCUGAAAUCGGUUA	1.24 ± 0.077
UAGCACCAUUUGAAAUCAGUGUU	1.47 ± 0.15
UAGCACCAUUUGAAAUCGGUUA	1.17 ± 0.57
UAGCAGCACAGAAAUAUUGGC	1.42 ± 0.76
UAGCAGCACAUAAUGGUUUGUG	1.98 ± 0.18
UAGCAGCACAUCAUGGUUUACA	1.59 ± 0.025
UAGCAGCACGUAAAUAUUGGCG	2.03 ± 0.15
UAGCAGCGGGAACAGUUCUGCAG	1.61 ± 0.1
UAGCUUAUCAGACUGAUGUUGA	1.73 ± 0.11
UAGGACACAUGGUCUACUUCU	1.04 ± 0.19
UAGGCAGUGUCAUUAGCUGAUUG	1.69 ± 0.15
UAGGUAGUUUCAUGUUGUUGGG	1.86 ± 0.1
UAGGUAGUUUCCUGUUGUUGGG	2.19 ± 0.23
UAGGUUAUCCGUGUUGCCUUCG	1.17 ± 0.16
UAGUACCAGUACCUUGUGUUCA	1.19 ± 0.3
UAGUACUGUGCAUAUCAUCUAU	1.44 ± 0.47
UAGUAGACCGUAUAGCGUACG	1.5 ± 0.21
UAGUGCAAUAUUGCUUAUAGGGU	0.808 ± 0.069

Sequence	HRG-induced Akt activation (log2)
UAUACAAGGGCAAGCUCUCUGU	1.05 ± 0.18
UAUACAAGGGCAGACUCUCUCU	1.48 ± 0.24
UAUACCUCAGUUUUAUCAGGUG	1.94 ± 0.15
UAUAGGGAUUGGAGCCGUGGCG	1.04 ± 0.064
UAUGCAUUGUAUUUUUAGGUCC	1.1 ± 0.81
UAUGGCACUGGUAGAAUUCACU	1.65 ± 0.3
UAUGGCUUUUCAUUCCUAUGUGA	1.12 ± 0.29
UAUGGCUUUUUAUUCCUAUGUGA	1.27 ± 0.27
UAUGUAACACGGUCCACUAACC	1.73 ± 0.081
UAUGUAACAUGGUCCACUAACU	1.97 ± 0.17
UAUGUAAUAUGGUCCACAUCUU	2.01 ± 0.2
UAUGUCUGCUGACCAUCACCUU	2.316 ± 0.0055
UAUGUGCCUUUGGACUACAUCG	1.56 ± 0.13
UAUGUGGGAUGGUAAACCGCUU	2.19 ± 0.34
UAUUCAUUUAUCCCCAGCCUACA	1.59 ± 0.22
UAUUGCACAUUACUAAGUUGCA	1.07 ± 0.077
UAUUGCACUCGUCCCGGCCUCC	1.33 ± 0.043
UAUUGCACUUGUCCCGGCCUGU	1.3 ± 0.12
UCAAAACUGAGGGGCAUUUUCU	1.34 ± 0.13
UCAAAUGCUCAGACUCCUGUGGU	1.63 ± 0.19
UCAAGAGCAAUAACGAAAAAUGU	1.91 ± 0.14
UCACAAGUCAGGCUCUUGGGAC	1.27 ± 0.15
UCACAAUGCUGACACUCAAACUGCUGAC	1.45 ± 0.48
UCACACCUGCCUCGCCCCCC	1.05 ± 0.31

Sequence	HRG-induced Akt activation (log2)
UCACAGUGAACCGGUCUCUUU	1.04 ± 0.063
UCACCAGCCCUGUGUUCCCUAG	1.69 ± 0.061
UCACUCCUCUCCUCCCGUCUU	1.4 ± 0.36
UCACUGUUCAGACAGGCGGA	2.02 ± 0.07
UCAGAACAAAUGCCGGUUCCCAGA	1.23 ± 0.54
UCAGCAAACAUUUAUUGUGUGC	1.819 ± 0.011
UCAGCUGGCCCUCAUUUC	1.12 ± 0.66
UCAGGCCAGGCACAGUGGCUCA	1.57 ± 0.41
UCAGGCUCAGUCCCCUCCCGAU	1.36 ± 0.046
UCAGUAAAUGUUUAUUAGAUGA	1.671 ± 0.0072
UCAGUGCACUACAGAACUUUGU	0.519 ± 0.1
UCAGUGCAUCACAGAACUUUGU	0.53 ± 0.045
UCAGUGCAUGACAGAACUUGG	1.09 ± 0.14
UCAUAGCCCUGUACAAUGCUGCU	1.697 ± 0.0055
UCAUAUUGCUUCUUUCU	1.79 ± 0.17
UCCAGCAUCAGUGAUUUUGUUG	1.77 ± 0.17
UCCAGUACCACGUGUCAGGGCCA	0.976 ± 0.31
UCCAGUGCCCUCCUCUCC	1.131 ± 0.0093
UCCAUUACACUACCCUGCCUCU	1.37 ± 0.17
UCCCACCGCUGCCACCC	1.98 ± 0.17
